For the experiment, the target named is T1, human TLR8 (hTLR8) (Homo sapiens, UniProt Q9NR97).
T1 construct: expressed in transfected cells
T1 sequence (Q9NR97 27-1041): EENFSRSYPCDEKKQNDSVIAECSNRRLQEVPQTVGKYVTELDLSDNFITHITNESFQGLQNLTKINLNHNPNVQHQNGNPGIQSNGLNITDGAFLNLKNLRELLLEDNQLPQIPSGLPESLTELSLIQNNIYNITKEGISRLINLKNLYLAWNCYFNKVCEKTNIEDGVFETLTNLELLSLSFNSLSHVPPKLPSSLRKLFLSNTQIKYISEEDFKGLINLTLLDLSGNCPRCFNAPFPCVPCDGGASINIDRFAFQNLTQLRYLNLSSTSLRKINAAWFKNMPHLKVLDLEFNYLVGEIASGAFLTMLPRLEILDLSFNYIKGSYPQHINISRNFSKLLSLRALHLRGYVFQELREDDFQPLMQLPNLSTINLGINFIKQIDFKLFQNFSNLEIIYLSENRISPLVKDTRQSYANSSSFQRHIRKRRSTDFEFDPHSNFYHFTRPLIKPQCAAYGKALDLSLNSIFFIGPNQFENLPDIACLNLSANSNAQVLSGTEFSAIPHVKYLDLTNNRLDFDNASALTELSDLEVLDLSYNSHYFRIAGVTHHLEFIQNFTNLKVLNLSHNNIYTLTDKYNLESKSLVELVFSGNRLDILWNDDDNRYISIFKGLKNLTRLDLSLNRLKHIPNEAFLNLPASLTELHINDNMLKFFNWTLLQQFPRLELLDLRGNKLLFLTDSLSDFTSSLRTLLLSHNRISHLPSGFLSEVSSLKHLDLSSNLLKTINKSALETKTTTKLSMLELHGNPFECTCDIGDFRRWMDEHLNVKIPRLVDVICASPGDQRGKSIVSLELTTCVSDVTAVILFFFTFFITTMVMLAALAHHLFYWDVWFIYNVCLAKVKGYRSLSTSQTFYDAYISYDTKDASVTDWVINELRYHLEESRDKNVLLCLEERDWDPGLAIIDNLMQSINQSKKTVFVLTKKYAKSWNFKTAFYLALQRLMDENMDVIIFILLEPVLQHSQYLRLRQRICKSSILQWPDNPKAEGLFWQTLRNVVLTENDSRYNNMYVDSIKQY
As to the kind of experiment: Antagonist screen, hTLR8-NFκB-293 cells, NF-κB-luciferase reporter, with EC50 of R848. Format: cell-based. The following applies: compound at 0.5, 5, 50 μg/ml; EC50 concentration of R848; 16 h; NF-κB-luciferase. On the procedure:
The method is described in greater detail as follows. The cells for each individual cell clone (hTLR3-NFκB-293, hTLR7-NFκB-293, hTLR8-NFκB-293 and hTLR9-NFκB-293) were counted and seeded one day before the stimulation at 1.5×10^4 cells per well in 96-well cell culture plates. To become adherent the cells were incubated after seeding overnight at 37° C. in 5% CO2 humidified air.
The screen for each compound was performed at the same time for all of the receptors TLR3, TLR7, TLR8 and TLR9. Up to fifteen test compounds, each assayed in duplicate at each of three different final concentrations (0.5 μg/ml, 5 μg/ml, and 50 μg/ml), were used for 16 h cell stimulation on a single multiwell culture plate. A 4× final concentration master plate was created to prepare the different test compounds before they were added to the cells.
Controls were added as duplicates individually for each cell clone on the cell culture plate. Positive controls were used as follows (final concentrations): 50 μg/ml poly(I:C) for hTLR3-NFκB-293; 8 μM resiquimod (R848) for hTLR7-NFκB-293; 30 μM R848 for hTLR8-NFκB-293; and 2.5 μM CpG-ODN 2006 for hTLR9-NFκB-293. Media alone was used as negative control. After addition of controls and small molecules, the cell clones were additionally stimulated with the EC50 concentration of the appropriate receptor-specific ligand.
The mean value of wells H2 and H5 (each with cells and EC50 concentration of the appropriate receptor-specific ligand) divided by the mean of wells H3 and H6 (each with cells alone) yielded the baseline response (i.e., fold induction of luciferase activity) to EC50 concentration of the appropriate receptor-specific ligand.
After 16 h stimulation the supernatant was removed and the cells treated with lysis buffer and stored at −80° C. before measuring.
For each screen result a graphical documentation was performed.
The baseline result (measured with addition of the EC50 concentration of the receptor-specific ligand) for each cell culture plate was measured as described above. Antagonistic effects were measured by down regulation compared to the baseline. Antagonists were scored as follows: • 13: compounds for which there was clear down regulation at 0.5 μg/ml, 5 μg/ml, and 50 μg/ml; • 12: compounds for which there was clear down regulation at 5 μg/ml and 50 μg/ml; • 11: compounds for which there was clear down regulation only at 50 μg/ml; • —: compounds for which there was no clear down regulation even at 50 μg/ml. Agonists
Results were expressed as fold induction over baseline luciferase activity measured in the absence of R848. […] Additional screening was performed in like manner using additional small molecules selected from another library or specifically prepared for this purpose. Scoring is reported as above but as applied to TLR8.
Background: In a reporter assay the amount or activity of a reporter protein is the signal.
Take Maprotilinehydrochloride [compound 346]: the “hTLR8 (inhibitory effect, antagonist score)” value is given as 11 (compounds for which there was clear down regulation only at 50 μg/ml).

Consider `C[N+]12CCC(CC1)C(OC(=O)C(O)(c1ccccc1)c1ccccc1)C2.[Br-]` (stereo not drawn) [compound 822, Clidinium bromide], for which the “hTLR8 (inhibitory effect, antagonist score)” value is given as “— (compounds for which there was no clear down regulation even at 50 μg/ml)”.

On to `CCN(CC)C(C)CN1c2ccccc2Sc2ccccc21.Cl` (stereo not drawn) [compound 840, Ethopropazinehydrochloride], for which the “hTLR8 (inhibitory effect, antagonist score)” value is 11 (compounds for which there was clear down regulation only at 50 μg/ml).

Turning to “Prochlorperazinedimaleate [compound 399]”, the “hTLR8 (inhibitory effect, antagonist score)” value is 11 (compounds for which there was clear down regulation only at 50 μg/ml).

In the case of `c1ccc2c(c1)[nH]c1cnccc12` [compound 470, norharman], the “hTLR8 (inhibitory effect, antagonist score)” value is 11 (compounds for which there was clear down regulation only at 50 μg/ml).

On to `CCN(CC)CCCN(CC(=O)C1c2ccc(Cl)cc2NC(=O)c2ccccc21)C(=O)c1ccccc1` (stereo not drawn) [compound 1013], for which the “hTLR8 (inhibitory effect, antagonist score)” value is recorded as “— (compounds for which there was no clear down regulation even at 50 μg/ml)”.

With `Cl.Cl.OCCN1CCN(CC/C=C2/c3ccccc3Sc3ccc(C(F)(F)F)cc32)CC1` [compound 340, Flupentixoldihydrochloride cis-(Z)], the “hTLR8 (inhibitory effect, antagonist score)” value was 11 (compounds for which there was clear down regulation only at 50 μg/ml).

Consider `CN(CCO)C(=O)c1cccc2c1-c1ccccc1C2=O` [compound 890], for which the “hTLR8 (inhibitory effect, antagonist score)” value was 11 (compounds for which there was clear down regulation only at 50 μg/ml).

Take “Trifluoperazinedihydrochloride [compound 313]”: the “hTLR8 (inhibitory effect, antagonist score)” value is recorded as 11 (compounds for which there was clear down regulation only at 50 μg/ml).

Turning to `Clc1ccc(C(c2ccccc2Cl)C(Cl)Cl)cc1` (stereo not drawn) [compound 833, Mitotane], the “hTLR8 (inhibitory effect, antagonist score)” value is given as 11 (compounds for which there was clear down regulation only at 50 μg/ml).

`COC(=O)c1cccc(C(O)(c2ccccc2)c2ccccc2)c1S(=O)(=O)C(C)(C)C` [compound 1187]: the “hTLR8 (inhibitory effect, antagonist score)” value is 11 (compounds for which there was clear down regulation only at 50 μg/ml).

Take `O=C1c2ccccc2C(=O)c2c1ccc1c(=O)n(C3CCCCC3)[nH]c21` [compound 1015]: the “hTLR8 (inhibitory effect, antagonist score)” value is 11 (compounds for which there was clear down regulation only at 50 μg/ml).

`COC(=O)[C@H]1[C@H]2C[C@@H]3c4[nH]c5cc(OC)ccc5c4CCN3C[C@H]2C[C@@H](OC(=O)/C=C/c2cc(OC)c(OC)c(OC)c2)[C@@H]1OC` [compound 568, Rescinnamin]: the “hTLR8 (inhibitory effect, antagonist score)” value is “— (compounds for which there was no clear down regulation even at 50 μg/ml)”.

As for `Cc1cccc(CN2CCN(C(c3ccccc3)c3ccc(Cl)cc3)CC2)c1.Cl.Cl` (stereo not drawn) [compound 457, Meclozinedihydrochioride], the “hTLR8 (inhibitory effect, antagonist score)” value is “— (compounds for which there was no clear down regulation even at 50 μg/ml)”.

For the molecule `CCOCCOC(=O)c1cc([N+](=O)[O-])cc2c1-c1c(cc([N+](=O)[O-])cc1[N+](=O)[O-])C2=C(C#N)C#N` [compound 1241], the “hTLR8 (inhibitory effect, antagonist score)” value was “— (compounds for which there was no clear down regulation even at 50 μg/ml)”.

As to `O=C1c2ccccc2C(=O)c2c1ccc1c(=O)n(-c3ccccc3)[nH]c21` [compound 1042], the “hTLR8 (inhibitory effect, antagonist score)” value was 13 (compounds for which there was clear down regulation at 0.5 μg/ml, 5 μg/ml, and 50 μg/ml).

Regarding `Nc1cccc2c1C(=O)c1cccc(N)c1C2=O` [compound 413, Anthraquinone,1,5-diamino], the “hTLR8 (inhibitory effect, antagonist score)” value is listed as 11 (compounds for which there was clear down regulation only at 50 μg/ml).

With `O=c1[nH]c2ccccc2n1C1CCN(CCCC(c2ccc(F)cc2)c2ccc(F)cc2)CC1` [compound 308, Pimozide], the “hTLR8 (inhibitory effect, antagonist score)” value was 11 (compounds for which there was clear down regulation only at 50 μg/ml).

Take `CN1CCC2C(C1)c1ccccc1N2Cc1ccccc1` (stereo not drawn) [compound 455, Mebhydroline 1,5 naphtalenedisulfonate]: the “hTLR8 (inhibitory effect, antagonist score)” value is “— (compounds for which there was no clear down regulation even at 50 μg/ml)”.

As for `COC(=O)c1cccc2c1-c1ccccc1/C2=N/O` [compound 904], the “hTLR8 (inhibitory effect, antagonist score)” value was 13 (compounds for which there was clear down regulation at 0.5 μg/ml, 5 μg/ml, and 50 μg/ml).

Consider `CN(C)CC/C=C1/c2ccccc2CSc2ccccc21.Cl` [compound 488, Dosulepin hydrochloride], for which the “hTLR8 (inhibitory effect, antagonist score)” value was “— (compounds for which there was no clear down regulation even at 50 μg/ml)”.

For the molecule `CC[C@]12CCCN3CCc4c(n(c5ccccc45)[C@](O)(C(=O)OC)C1)[C@@H]32` [compound 636, Epivincamine], the “hTLR8 (inhibitory effect, antagonist score)” value is “— (compounds for which there was no clear down regulation even at 50 μg/ml)”.

Consider `Cc1cc(OC(=O)C2C3CCCCC32)c(C(C)C)cc1C1(c2cc(C(C)C)c(OC(=O)C3C4CCCCC43)cc2C)OC(=O)c2ccccc21` (stereo not drawn) [compound 974], for which the “hTLR8 (inhibitory effect, antagonist score)” value is 11 (compounds for which there was clear down regulation only at 50 μg/ml).

As for `O=C(O)c1cc(C(c2ccc(O)c(C(=O)O)c2)C(Cl)(Cl)Cl)ccc1O` [compound 884], the “hTLR8 (inhibitory effect, antagonist score)” value is on record as 11 (compounds for which there was clear down regulation only at 50 μg/ml).

Regarding `CC1CCN(C(=O)c2cccc3c2-c2ccccc2C3=O)CC1` [compound 1243], the “hTLR8 (inhibitory effect, antagonist score)” value is given as 11 (compounds for which there was clear down regulation only at 50 μg/ml).

As for `CN(C)CCC=C1c2ccccc2CCc2ccccc21.Cl` [compound 74, Amitryptilinehydrochloride], the “hTLR8 (inhibitory effect, antagonist score)” value is reported as “— (compounds for which there was no clear down regulation even at 50 μg/ml)”.

For `CC(CN(C)C)CN1c2ccccc2Sc2ccccc21.CC(CN(C)C)CN1c2ccccc2Sc2ccccc21.O=C(O)C(O)C(O)C(=O)O` (stereo not drawn) [compound 842, Trimeprazine tartrate], the “hTLR8 (inhibitory effect, antagonist score)” value is on record as 11 (compounds for which there was clear down regulation only at 50 μg/ml).

In the case of `O=C1c2c(O)cccc2Cc2cccc(O)c21` [compound 43, Anthralin], the “hTLR8 (inhibitory effect, antagonist score)” value was 12 (compounds for which there was clear down regulation at 5 μg/ml and 50 μg/ml).

`CN1CCN(C(c2ccccc2)c2ccccc2)CC1.Cl` [compound 510, Cyclizine hydrochloride]: the “hTLR8 (inhibitory effect, antagonist score)” value is on record as “— (compounds for which there was no clear down regulation even at 50 μg/ml)”.

On to `CN(C)CCCN1c2ccccc2Sc2ccccc21.Cl` [compound 693, Promazinehydrochloride], for which the “hTLR8 (inhibitory effect, antagonist score)” value is “— (compounds for which there was no clear down regulation even at 50 μg/ml)”.

The values are drawn from patent US7410975B2, “Small molecule toll-like receptor (TLR) antagonists” (Coley Pharmaceutical Group, Inc., priority 2003, dated 2008).
